Source: ChEMBL document CHEMBL4651402, “Screening of ~5500 FDA-approved drugs and clinical candidates for anti-SARS-CoV-2 activity” (2021)
Bridge positions count the residues as written; N and C are the ends. Square brackets hold non-standard residues; d marks the D form. Peptide text beside a SMILES is read from it. * marks the point of attachment. NH(β-GlcNAc) = CC(=O)N[C@@H]1[C@@H](O)[C@H](O)[C@@H](CO)O[C@H]1N*; Dap = NC[C@H](N)C(=O)O

Tested on: SARS-CoV-2
Assay: microbe, parasite or virus in culture
Conditions: Severe acute respiratory syndrome coronavirus 2, Vero C1008, 48 h

Structure (SMILES) | IC50 [µM] | IC50 (read-out: pIC50 (converted)) [µM]
C=C[C@@](C)(O)CC[C@H]1C(=C)CCC2[C@@](C)(CO)CCC[C@@]21C (some centres undefined) | > 20 | > 20
O=C1CN(/N=C/c2ccc(-c3ccc([N+](=O)[O-])cc3)o2)C(=O)N1 [DANTROLENE] | > 20 | > 20
CC(=O)c1cc2ccccc2oc1=O [3-ACETYLCOUMARIN] | > 20 | > 20
CC(=O)[C@H]1CC[C@H]2[C@@H]3CC=C4C[C@@H](OS(=O)(=O)O)CC[C@]4(C)[C@H]3CC[C@]12C | > 20 | > 20
CCCCCCCN(CC)CCCC(O)c1ccc(NS(C)(=O)=O)cc1 (centres undefined) [IBUTILIDE] | > 20 | > 20
O=C1NCCN1CCN1CCC(c2cn(-c3ccc(F)cc3)c3ccc(Cl)cc23)CC1 [SERTINDOLE] | > 20 | > 20
N#CCCCSC(=N)N [4-ISOTHIOUREIDOBUTYRONITRILE] | > 20 | > 20
CC1(C)S[C@@H]2[C@H](NC(=O)Cc3ccccc3)C(=O)N2[C@H]1C(=O)O [PENICILLIN G] | > 20 | > 20
NCC(=O)CCC(=O)O [AMINOLEVULINIC ACID] | > 20 | > 20
Nc1ncc(-c2ccncc2)nc1Nc1ccc2[nH]ccc2c1 [AKN-028] | > 20 | > 20
CCc1ccccc1-n1c(C)nc2ccccc2c1=O [ETAQUALONE] | > 25.1 | > 25.1
Cc1cn([C@@H]2C[C@H](O)[C@@H](CO)O2)c(=O)[nH]c1=O | > 20 | > 20
C[C@@]12C(=O)OC(=O)[C@]1(C)[C@H]1CC[C@@H]2O1 [CANTHARIDIN] | > 20 | > 20
CC(C)n1nc(-c2ccc3oc(N)nc3c2)c2c(N)ncnc21 [SAPANISERTIB] | > 20 | > 20
Sc1ncnc2nc[nH]c12 [MERCAPTOPURINE ANHYDROUS] | > 20 | > 20
NCC1CCC(C(=O)Oc2ccc(CCC(=O)O)cc2)CC1 (centres undefined) | > 20 | > 20
Cc1ccc2c(Cl)cc(Cl)c(O)c2n1 [CHLORQUINALDOL] | > 20 | > 20
CC(C)=CC[C@@H](O)C1=CC(=O)c2c(O)ccc(O)c2C1=O [SHIKONIN] | > 20 | > 20
CCN(CC)CCOC(=O)C(Cc1cccc2ccccc12)CC1CCCO1 (centres undefined) [NAFRONYL] | > 20 | > 20
CN(C)c1cc2c(cc1Sc1nc3c(N)nccc3n1CCNCC(C)(C)C)OCO2 [CUDC-305] | > 20 | > 20
C=C1/C(=C\C=C2/CCC[C@]3(C)[C@@H]([C@H](C)/C=C/[C@@H](O)C4CC4)CC[C@@H]23)C[C@@H](O)C[C@@H]1O [CALCIPOTRIENE] | > 20 | > 20
O=C(O)c1cccc2c1Nc1cc(C(F)(F)F)ccc1S2 [FLUTIAZIN] | > 20 | > 20
CC(=O)Oc1cc2c(s1)CCN(C(C(=O)C1CC1)c1ccccc1F)C2 (centres undefined) | > 20 | > 20

Structure (SMILES) | IC50 [µM] | IC50 (read-out: pIC50 (converted)) [µM]
OCC(O)C(O)CO (centres undefined) | > 20 | > 20
O=C(O)[C@]1(O)C[C@H](O)[C@@H](O)[C@@H](O)C1 | > 20 | > 20
NS(=O)(=O)c1cc2c(cc1C(F)(F)F)NC(Cc1ccccc1)NS2(=O)=O (centres undefined) [BENDROFLUMETHIAZIDE] | > 20 | > 20
Cc1cc(C(C)(C)C)c(O)c(C)c1CC1=NCCN1 [OXYMETAZOLINE] | > 20 | > 20
CNCCc1cnc[nH]1 | > 20 | > 20
CCC(CC)CC1(C(=O)Nc2ccccc2SC(=O)C(C)C)CCCCC1 [DALCETRAPIB] | > 20 | > 20
N[C@@H](CCC(=O)N[C@@H](Cc1c[nH]c2ccccc12)C(=O)O)C(=O)O | > 20 | > 20
O=C(OCCOCCO)c1ccccc1Nc1cccc(C(F)(F)F)c1 [ETOFENAMATE] | > 20 | > 20
CCOC(=O)[C@@](C)(N)Cc1ccc(O)c(O)c1 [METHYLDOPATE] | > 20 | > 20
CCCS(=O)(=O)N[C@H]1C[C@@H](N(C)c2ncnc3[nH]ccc23)C1 [ABROCITINIB] | > 20 | > 20
CCC(C)C(NC(=O)C(CCC(N)=O)NC(=O)C1CCCN1C(=O)C(CCCNC(=N)N)NC(=O)C1CCCN1C(=O)C(Cc1c[nH]c2ccccc12)NC(=O)C1CCC(=O)N1)C(=O)N1CCCC1C(=O)N1CCCC1C(=O)O (centres undefined) | > 20 | > 20
CCc1c2c(nc3ccc(O)cc13)-c1cc3c(c(=O)n1C2)COC(=O)[C@]3(O)CC [7-ETHYL-10-HYDROXYCAMPTOTHECIN] | > 20 | > 20
CCC(=O)c1ccc(OCC(O)CN2CCN(c3ccccc3)CC2)cc1 (centres undefined) | > 20 | > 20
CC(C)(O)CC(=O)O [.BETA.-HYDROXYISOVALERIC ACID] | > 20 | > 20
CCCCC/C=C/C/C=C/CCCCCCCC(=O)NC(C)c1ccccc1 (centres undefined) [MELINAMIDE] | > 20 | > 20
C#C[C@]1(O)CC[C@H]2[C@@H]3CCc4cc(O)ccc4[C@H]3CC[C@@]21C [ETHINYL ESTRADIOL] | > 20 | > 20
COc1cc(C)nc(-n2nc(C)cc2OC)n1 [EPIRIZOLE] | > 20 | > 20
CC(C)OC(=O)[C@H](C)NP(=S)(OC[C@H]1O[C@@H](n2ccc(=O)[nH]c2=O)[C@](C)(O)[C@@H]1O)Oc1ccccc1 (some centres undefined) [VX-135] | > 20 | > 20
CN(C)CCn1nnnc1SCC1=C(C(=O)O)N2C(=O)[C@@H](NC(=O)Cc3csc(N)n3)[C@H]2SC1 [CEFOTIAM] | > 20 | > 20
CC[C@H]1OC(=O)[C@H](C)C(=O)[C@H](C)[C@@H](O[C@@H]2O[C@H](C)C[C@H](N(C)C)[C@H]2O)[C@](C)(OCC=Cc2cnc3ccccc3c2)C[C@@H](C)C(=O)[C@H](C)[C@H]2NC(=O)O[C@@]21C [CETHROMYCIN] | > 20 | > 20
COc1c2c(cc3c1C(O)N(C)CC3)OCO2 (centres undefined) | > 20 | > 20
O=C(N/N=C/c1ccc([N+](=O)[O-])o1)c1ccc(O)cc1 [NIFUROXAZIDE] | > 20 | > 20
CCN(c1ccccc1)c1cc(NC)[n+](C)c(C)n1 | > 20 | > 20

Structure (SMILES) | IC50 [µM] | IC50 (read-out: pIC50 (converted)) [µM]
CC[C@@](C)(Nc1ccnc(-c2c[nH]c3ncccc23)n1)C(=O)NCC(F)(F)F [DECERNOTINIB] | > 20 | > 20
CCCCCCCCCCCCCCC[C@@H](O)[C@@H](N)CO [DIHYDROSPINGOSINE] | > 20 | > 20
CC[C@H]1OC(=O)[C@H](C)[C@@H](O[C@H]2C[C@@](C)(OC)[C@@H](O)[C@H](C)O2)[C@H](C)[C@@H](O[C@@H]2O[C@H](C)C[C@H](N(C)C)[C@H]2O)[C@](C)(O)C[C@@H](C)/C(=N\OCOCCOC)[C@H](C)[C@@H](O)[C@]1(C)O [ROXITHROMYCIN] | > 20 | > 20
O/N=C1/CCCC/C1=N\O | > 20 | > 20
O=C(c1ccc2nonc2c1)N1CCCCC1 [FARAMPATOR] | > 20 | > 20
CO[C@H]1/C=C\O[C@@]2(C)Oc3c(C)c(O)c4c(=O)c(c5oc6cc(N7CCN(CC(C)C)CC7)cc(O)c6nc-5c4c3C2=O)NC(=O)/C(C)=C\C=C/[C@H](C)[C@H](O)[C@@H](C)[C@@H](O)[C@@H](C)[C@H](OC(C)=O)[C@@H]1C | > 20 | > 20
C[C@@H]1CC[C@@]2(OC1)O[C@H]1C[C@H]3[C@H]4CC[C@H]5C[C@@H](O[C@@H]6O[C@H](CO)[C@@H](O[C@@H]7O[C@H](CO)[C@@H](O)[C@H](O)[C@H]7O)[C@H](O)[C@H]6O)CC[C@@]5(C)[C@H]4CC[C@]3(C)[C@H]1[C@@H]2C | > 20 | > 20
COc1ccccc1N1CCN(CC(O)COc2cccc3ccccc23)CC1 (centres undefined) [NAFTOPIDIL] | > 20 | > 20
c1cc2c(cc1[C@H]1OC[C@H]3[C@@H]1CO[C@H]3c1ccc3c(c1)OCO3)OCO2 [ASARININ] | > 20 | > 20
Cc1cc(=O)oc2cc(O)c(O)cc12 [4-METHYLESCULETIN] | > 20 | > 20
Nc1cc2[nH]cnc2c(=O)[nH]1 [DEZAGUANINE] | > 20 | > 20
O=C(O)C(O)C(O)C(=O)O (centres undefined) [TARTARIC ACID] | > 20 | > 20
COc1ccc2c(O[C@H]3C[C@@H]4C(=O)N[C@@]5(C(=O)NS(=O)(=O)C6CC6)C[C@@H]5/C=C\CCCCN(C)C(=O)[C@H]4C3)cc(-c3nc(C(C)C)cs3)nc2c1C (single isomer, unassigned) | > 20 | > 20
C[C@@H]1CCC[C@H](C)N1NC(=O)c1ccc(Cl)c(S(N)(=O)=O)c1 [CLOPAMIDE] | > 20 | > 20
CC(O)Cn1cnc2c1c(=O)n(C)c(=O)n2C (centres undefined) [PROXYPHYLLINE] | > 20 | > 20
NCCCCCCNS(=O)(=O)c1cccc2c(Cl)cccc12 | > 20 | > 20
CC(=O)N[C@@H]1[C@@H](O)[C@H](O)[C@@H](CO)O[C@H]1NC(=O)C[C@@H]1NC(=O)[C@H](CC(C)C)NC(=O)[C@@H]2CNC(=O)C[C@H](NC1=O)C(=O)N[C@@H](Cc1c[nH]c3ccccc13)C(=O)N[C@@H](Cc1ccccc1)C(=O)N2 [NEPADUTANT] (cyclo(D(NH(β-GlcNAc))DWF[Dap]L); lactam 2-5) | > 20 | > 20
COc1cc(Cc2cnc(N)nc2N)cc(OC)c1OC [TRIMETHOPRIM] | > 20 | > 20
CC(C)NCC(O)c1ccc([N+](=O)O)cc1 (centres undefined) | > 20 | > 20
Cc1ccc(Cl)c(Nc2ccccc2C(=O)O)c1Cl [MECLOFENAMIC ACID] | > 20 | > 20
CC(CCC(=O)O)C1CCC2C3CC[C@@H]4C[C@H](O)CC[C@]4(C)C3C[C@H](O)[C@]12C (some centres undefined) | > 20 | > 20
